Where a name gives a salt, the structure may show the parent alone.
Target: T1, human FAAH (Homo sapiens, UniProt O00519)
T1 construct: made in house; 10000 g pellet suspended in M-PER
T1 sequence (O00519 1-579): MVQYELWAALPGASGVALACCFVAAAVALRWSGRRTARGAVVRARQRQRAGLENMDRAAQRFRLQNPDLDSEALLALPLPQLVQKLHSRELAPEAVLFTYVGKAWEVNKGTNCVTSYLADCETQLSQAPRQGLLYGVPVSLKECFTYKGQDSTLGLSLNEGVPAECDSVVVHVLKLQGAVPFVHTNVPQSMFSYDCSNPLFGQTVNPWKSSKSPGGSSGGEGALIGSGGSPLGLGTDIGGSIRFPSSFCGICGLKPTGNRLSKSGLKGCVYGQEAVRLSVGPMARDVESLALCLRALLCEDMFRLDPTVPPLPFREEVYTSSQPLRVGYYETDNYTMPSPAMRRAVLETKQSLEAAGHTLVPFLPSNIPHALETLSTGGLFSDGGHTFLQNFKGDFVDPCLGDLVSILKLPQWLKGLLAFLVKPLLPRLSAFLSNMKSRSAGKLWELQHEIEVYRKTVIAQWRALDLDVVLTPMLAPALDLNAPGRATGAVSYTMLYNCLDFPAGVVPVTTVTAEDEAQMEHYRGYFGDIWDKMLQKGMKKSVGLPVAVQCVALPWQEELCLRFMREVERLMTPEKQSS
Test: Measurement of FAAH inhibitory activity (anandamide [ethanolamine 1-3H] hydrolysis, filter plate)
Format: biochemical
Settings: test compound 1 μM; CHO-K1/human FAAH enzyme fraction; anandamide 25 nM; 37° C., 30 minutes; read-out: Human FAAH Inhibition Rate at 1 μM (%)
Method: (1) Preparation of Enzyme Fraction
The FAAH gene was cloned by PCR. That is, a human brain library was used as a cDNA library, 5′-[…]-3′ [SEQ ID NO:1] and 5′-[…]-3′ [SEQ ID NO:2] were used as a primer set, and KOD DNA polymerase (Toyobo Co., Ltd.) was used as a DNA polymerase. One cycle of the reaction comprises 95° C. for 30 sec, 55° C. for 30 sec and 72° C. for 2 min, and 45 cycles of the reaction was carried out to obtain an amplified fragment. The amplified fragment was cleaved with restriction enzymes EcoRI and SalI, and then was inserted into a pMSRα vector which had been cleaved with the same restriction enzymes EcoRI and SalI to obtain a pMSRα-human FAAH. A cell line CHO-K1 and the above-obtained plasmid were subjected to a method known per se to prepare the cell line CHO-K1/human FAAH in which human FAAH was stably expressed. The CHO-K1/human FAAH was cultured in a CO2 incubator at 37° C., using a medium (Ham's F-12 medium supplemented with final concentration 10% of fetal bovine serum (FBS) and final concentration 800 μg/ml of G418), and then the cells were harvested. After washing with PBS, the cells were suspended in a buffer (10 mM Tris, 1 mM EDTA and 10 mM MgCl2, all at final concentrations) and disrupted with a Polytron homogenizer. After centrifugation at 900 g, the supernatant was recovered and further centrifuged at 10000 g. A pellet obtained therefrom was suspended in M-PER (Catalog No. 78501; PIERCE) to give an enzyme fraction.
Using a white walled 96-well plate (Coster Corp.), the test compound at various concentrations, 60 ng of the enzyme fraction and the substrate anandamide [ethanolamine 1-^3H] (final concentration 25 nM) were reacted in 50 μl of a reaction buffer (125 mM Tris-HCl (pH 9.0), 1 mM EDTA, 0.4 mM HEPES, 0.2% glycerol and 0.02% Triton X-100, all at final concentrations) at 37° C. for 30 minutes. The reaction mixture was transferred to a 96-well MultiScreen-HA filter plate (Millipore Corp.) and then was left to stand overnight at room temperature in order to allow the unreacted substrate to be adsorbed on the filter. The plate was washed with PBS using a MultiScreen Vacuum Manifold (Millipore Corp.) and dried. To each well, 50 μl of liquid scintillation cocktail was added and stirred, and then counting was performed with a TopCount (Perkin-Elmer Corp.). The count of a sample containing a solvent instead of the test compound was taken as 0%, and the count at zero time was taken as 100%, to calculate the inhibitory activity of the compound.

| SMILES | inhibition at 1 µM |
| --- | --- |
| O=C(Nc1noc2ccccc12)N1CCN(c2nc(-c3ccccc3)ns2)CC1 [Example 1, N-1,2-Benzisoxazol-3-yl-4-(3-phenyl-1,2,4-thiadiazol-5-yl)piperazine-1-carboxamide] | 100% |
| O=C(Nc1noc2ccccc12)N1CCN(c2nc(-c3ccccn3)ns2)CC1 [Example 15, N-1,2-Benzisoxazol-3-yl-4-(3-pyridin-2-yl-1,2,4-thiadiazol-5-yl)piperazine-1-carboxamide] | 102% |
| O=C(Nc1noc2ccccc12)N1CCN(c2nc(N3CCCCC3)ns2)CC1 [Example 17, N-1,2-Benzisoxazol-3-yl-4-(3-piperidin-1-yl-1,2,4-thiadiazol-5-yl)piperazine-1-carboxamide] | 95% |
| O=C(Nc1noc2ccccc12)N1CCN(c2nc(-c3ccccc3)no2)CC1 [Example 22, N-1,2-Benzisoxazol-3-yl-4-(3-phenyl-1,2,4-oxadiazol-5-yl)piperazine-1-carboxamide] | 94% |
| O=C(Nc1ccc2[nH]nnc2c1)N1CCN(c2nc(-c3ccccc3)ns2)CC1 [Example 71, N-1H-1,2,3-Benzotriazol-5-yl-4-(3-phenyl-1,2,4-thiadiazol-5-yl)piperazine-1-carboxamide] | 108% |
| O=C(Nc1cccnc1)N1CCN(c2nc(-c3ccccc3)cs2)CC1 [Example 94, 4-(4-Phenyl-1,3-thiazol-2-yl)-N-pyridin-3-ylpiperazine-1-carboxamide] | 100% |
| O=C(Nc1noc2ccccc12)N1CCN(C(=O)OCc2ccccc2)CC1 [Example 95, Benzyl 4-[(1,2-benzisoxazol-3-ylamino)carbonyl]piperazine-1-carboxylate] | 100% |
| Cc1noc(NC(=O)N2CCC(c3nc(-c4ccccc4)cs3)CC2)c1C [Example 190, N-(3,4-Dimethylisoxazol-5-yl)-4-(4-phenyl-1,3-thiazol-2-yl)piperidine-1-carboxamide] | 103% |
| CCc1sc(N2CCN(C(=O)Nc3ccc(NC(C)=O)nc3)CC2)nc1-c1ccccc1 [Example 226, N-[6-(Acetylamino)pyridin-3-yl]-4-(5-ethyl-4-phenyl-1,3-thiazol-2-yl)piperazine-1-carboxamide] | 104% |
| O=C(Nc1cccnn1)N1CCN(c2nc(-c3cccc(F)c3)cs2)CC1 [Example 228, 4-[4-(3-Fluorophenyl)-1,3-thiazol-2-yl]-N-pyridazin-3-ylpiperazine-1-carboxamide] | 106% |
| Cc1noc(NC(=O)N2CCC(c3nc(-c4ccc(F)cc4)cs3)CC2)c1C [Example 236, N-(3,4-Dimethylisoxazol-5-yl)-4-[4-(4-fluorophenyl)-1,3-thiazol-2-yl]piperidine-1-carboxamide] | 106% |
| Cc1noc(NC(=O)N2CCN(c3nc(-c4ccc(F)cc4F)cs3)CC2)c1C [Example 260, 4-[4-(2,4-Difluorophenyl)-1,3-thiazol-2-yl]-N-(3,4-dimethylisoxazol-5-yl)piperazine-1-carboxamide] | 102% |
| Cc1cccc(-c2csc(N3CCN(C(=O)Nc4cccnc4)CC3)n2)c1 [Example 275, 4-[4-(3-Methylphenyl)-1,3-thiazol-2-yl]-N-pyridin-3-ylpiperazine-1-carboxamide] | 94% |
| Cc1noc(NC(=O)N2CCN(c3nc(-c4cccc(Cl)c4)cs3)CC2)c1C [Example 276, 4-[4-(3-Chlorophenyl)-1,3-thiazol-2-yl]-N-(3,4-dimethylisoxazol-5-yl)piperazine-1-carboxamide] | 104% |
| COc1cccc(-c2csc(N3CCN(C(=O)Nc4onc(C)c4C)CC3)n2)c1 [Example 277, N-(3,4-Dimethylisoxazol-5-yl)-4-[4-(3-methoxyphenyl)-1,3-thiazol-2-yl]piperazine-1-carboxamide] | 100% |
| Cc1noc(NC(=O)N2CCN(c3nc(-c4cccc(C(F)(F)F)c4)cs3)CC2)c1C [Example 278, N-(3,4-Dimethylisoxazol-5-yl)-4-{4-[3-(trifluoromethyl)phenyl]-1,3-thiazol-2-yl}piperazine-1-carboxamide] | 104% |
| O=C(Nc1cccnc1)N1CCN(c2nc(-c3cccc(Cl)c3Cl)cs2)CC1 [Example 283, 4-[4-(2,3-Dichlorophenyl)-1,3-thiazol-2-yl]-N-pyridin-3-ylpiperazine-1-carboxamide] | 102% |
| Cc1noc(NC(=O)N2CCN(c3nc(-c4cccc(Cl)c4Cl)cs3)CC2)c1C [Example 284, 4-[4-(2,3-Dichlorophenyl)-1,3-thiazol-2-yl]-N-(3,4-dimethylisoxazol-5-yl)piperazine-1-carboxamide] | 128% |

More lines, now with the values ahead:

| inhibition at 1 µM | SMILES |
| --- | --- |
| 98% | CC(C)c1nsc(N2CCN(C(=O)Nc3noc4ccccc34)CC2)n1 [Example 9, N-1,2-Benzisoxazol-3-yl-4-(3-isopropyl-1,2,4-thiadiazol-5-yl)piperazine-1-carboxamide] |
| 100% | O=C(Nc1noc2ccccc12)N1CCN(c2nc(-c3ccccc3)co2)CC1 [Example 23, N-1,2-Benzisoxazol-3-yl-4-(4-phenyl-1,3-oxazol-2-yl)piperazine-1-carboxamide] |
| 100% | O=C(Nc1cccnc1)N1CCN(c2nc(-c3ccccc3)ns2)CC1 [Example 85, 4-(3-Phenyl-1,2,4-thiadiazol-5-yl)-N-pyridin-3-ylpiperazine-1-carboxamide hydrochloride] |
| 101% | O=C(Nc1cccnn1)N1CCN(c2nc(-c3ccccc3)ns2)CC1 [Example 147, 4-(3-Phenyl-1,2,4-thiadiazol-5-yl)-N-pyridazin-3-ylpiperazine-1-carboxamide] |
| 106% | O=C(Nc1cnccn1)N1CCN(c2nc(-c3ccccc3)cs2)CC1 [Example 166, 4-(4-Phenyl-1,3-thiazol-2-yl)-N-pyrazin-2-ylpiperazine-1-carboxamide] |
| 105% | O=C(Nc1cnccn1)N1CCN(c2nc(-c3cccc(F)c3)cs2)CC1 [Example 229, 4-[4-(3-Fluorophenyl)-1,3-thiazol-2-yl]-N-pyrazin-2-ylpiperazine-1-carboxamide] |
| 106% | O=C(Nc1cccnc1)N1CCN(c2nc(-c3cccc(F)c3F)cs2)CC1 [Example 262, 4-[4-(2,3-Difluorophenyl)-1,3-thiazol-2-yl]-N-pyridin-3-ylpiperazine-1-carboxamide] |
| 102% | O=C(Nc1cccnn1)N1CCN(c2nc(-c3cccc(F)c3F)cs2)CC1 [Example 272, 4-[4-(2,3-Difluorophenyl)-1,3-thiazol-2-yl]-N-pyridazin-3-ylpiperazine-1-carboxamide] |
| 86% | Cc1cccc(-c2csc(N3CCN(C(=O)Nc4onc(C)c4C)CC3)n2)c1 [Example 280, N-(3,4-Dimethylisoxazol-5-yl)-4-[4-(3-methylphenyl)-1,3-thiazol-2-yl]piperazine-1-carboxamide] |

— US7851473B2, “Amide compound” (Takeda Pharmaceutical Company Limited, priority 2004, dated 2010)
